Test results from US20100056631A1, “ANTIALLERGENIC COMPOSITION” (OPHTECS CORPORATION, priority 2006, published 2010).

Columns and labels:
[1] = system: rat suffering from experimental allergenic conjunctivitis; experiment: Evaluation test of itching suppression effect in rat model of chronically allergic conjunctivitis; type: in vivo; details: 5 μl eye drops to both eyes 5 min before local sensitizing reagent (egg albumin), scratching observed 20 min, repeated 8 days, total for 8 days vs test formulation No. 1 (FIG. 1, 2; significant level of 5%)
Experimental: 0.6 ml of a primary sensitizing reagent (a solution prepared by dissolving 20 mg of egg albumin, 40 mg of aluminum hydroxide gel and 2×10^11 units of an inactivated pertussis antigen in physiological saline) was administered to the footpads of both hands and both feet of a rat by using a 24G injection needle. Five days after the administration of the primary sensitizing reagent, 1 ml of a secondary sensitizing reagent (a solution prepared by dissolving 50 mg of egg albumin in 100 ml of physiological saline) was injected hypodermically into the back portion of the rat by using a 27G injection needle. From 14-th to 42-th days after the administration of the primary sensitizing reagent, 5 μl of drops of a local sensitizing reagent (a solution prepared by dissolving 500 mg of egg albumin in 50 ml of physiological saline) was administered to the both eyes of the rat, and the rat was put in an observation cage to observe the “scratching” of the rat for 20 minutes right after the administration of the ophthalmic solution. The rat which took this action 10 times or more within 20 minutes was used as a “rat suffering from experimental allergenic conjunctivitis” in the experiment. […]

[2] = system: rat administered with an ophthalmic solution of histamine; experiment: Effect of suppressing histamine-induced pruritus; type: in vivo; details: 5 μl eye drops to both eyes 5 min before histamine 10 μmol/5 μl; scratching observed 20 min (FIG. 4)
Experimental: In experiments on the evaluation of the effect of suppressing histamine-induced pruritus, test formulation No. 1 (0% of sodium D-3-hydroxybutyrate, referred to as PBS in FIG. 4) and test formulation No. 4 (1.0% of sodium D-3-hydroxybutyrate, referred to as 1% HBA in FIG. 4) shown in Table 1 and Intal (2% of sodium cromoglycate) and Livostin (0.025% of levocabastine hydrochloride) as Comparative formulation were used.
5 μl of an ophthalmic solution of the test formulation or Comparative formulation was administered to the both eyes of each rat each time. Five minutes after this, 10 μmol/5 μl of an ophthalmic solution of histamine was administered to one eye each time to induce pruritus in the rat. […] Meanwhile, Intal which is a chemical mediator isolation inhibitor was not effective (FIG. 4).

C[C@@H](O)CC(=O)[O-].[Na+] [Sodium D-3-hydroxybutyrate]
number of times of scratching (itching suppression effect) [1]: suppressed the scratching of the rat suffering from an experimental allergy, dependent upon its volume
number of times of scratching (itching suppression effect) ([1]; listed as sodium D-3-hydroxybutyrate): excellent pruritus suppression effect
scratching after histamine ophthalmic solution (effect of suppressing itching) [2]: excellent pruritus suppression effect
